Experimental data as given in patent publication US20130204033A1, “ANTIPROLIFERATIVE COMPOUNDS, CONJUGATES THEREOF, METHODS THEREFOR, AND USES THEREOF” (Medarex, Inc., priority 2009, published 2013).
Like-named read-outs stand apart in the source and are kept apart here.

Columns and labels:
Type in all cases: cell-based, human
[1] = test system: NCI-H460; experiment: ATP luminescence proliferation assay, NCI-H460
Procedure, shortened: (§1)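 Cells seeded at 1.0×10^3 cells/well for 3 h, then exposed to 1:3 serial dilutions of free compounds or conjugates for 48, 72 or 96 h as noted. ATP measured by Glo luminescent viability kit; EC50 taken as concentration reducing proliferation by 50%.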

[2] = test system: H740; experiment: 3H thymidine proliferation assay, H740
Procedure, shortened: (§2)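 Tumour cells were plated at 1.0×10^4 per well and, after 3 h, treated with threefold serial dilutions of compound or conjugate. Total incubation was 72 h, with a 1.0 μCi ^3H-thymidine pulse over the last 24 h. Counts gave the 50% inhibition concentration (EC50).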

[3] = test system: Hep3B; experiment: ATP luminescence proliferation assay, Hep3B
Procedure, shortened: as §1

[4] = test system: SKOV3; experiment: ATP luminescence proliferation assay, SKOV3
Procedure, shortened: as §1

[5] = test system: DMS53; experiment: ATP luminescence proliferation assay, DMS53
Procedure, shortened: as §1

[6] = test system: BT474; experiment: 3H thymidine proliferation assay, BT474
Procedure, shortened: as §2

[7] = test system: 786-O; experiment: 3H thymidine proliferation assay, 786-O
Procedure, shortened: as §2

[8] = test system: Raji; experiment: 3H thymidine proliferation assay, Raji
Procedure, shortened: as §2

[9] = test system: A2058; experiment: 3H thymidine proliferation assay, A2058; settings: 3H thymidine method, 72 h incubation
Procedure, shortened: as §2

[10] = test system: BT474; experiment: ATP luminescence proliferation assay, BT474
Procedure, shortened: as §1

[11] = test system: HPAC; experiment: ATP luminescence proliferation assay, HPAC
Method: This example generally describes the procedures used to assay the antiproliferative activity of compounds of this invention or their conjugates. Human tumor cell lines were obtained from the American Type Culture Collection (ATCC), P.O. Box 1549, Manassas, Va. 20108, USA, and cultured according to instruction from the ATCC. Cells were seeded at 1.0×10^3 or 1.0×10^4 cells/well in 96-well plates for 3 h for ATP assays or ^3H thymidine assays, respectively. 1:3 serial dilutions of free (unconjugated) compounds or their conjugates were added to the wells. Plates were allowed to incubate for 24 to 72 h. The ^3H thymidine plates were pulsed with 1.0 μCi of ^3H-thymidine per well for the last 24 hours of the total incubation period, harvested, and read on a Top Count Scintillation Counter (Packard Instruments, Meriden, Conn.). ATP levels in the ATP plates were measured using the […]-GLO® Luminescent Cell Viability kit following the manufacturer's manual and read on a GLOMAX® 20/20 luminometer (both from Promega, Madison, Wis., USA). The EC50 values—the concentration at which an agent inhibits or reduces cell proliferation by 50% —were determined using PRISM™ software, version 4.0 (GraphPad Software, La Jolla, Calif., USA).
Using the ^3H thymidine or the ATP luminescence assay, or both, the activities of compounds of this invention were assayed against the following cancer cell lines: HCT-15 (colorectal cancer, multi-drug resistant (MDR)); Hep3B (liver cancer); LNCaP (prostate cancer, androgen receptor positive (AR^+)); MDA-MB-231 (breast cancer, estrogen receptor, progesterone receptor, and Her2 negative (triple negative)); A2058 (melanoma); U-87 MG (glioblastoma); NCI-H460 (NSCLC); A549 (NSCLC); HPAC (pancreatic cancer, primary); PC3 (prostate cancer, AR); BT474 (breast cancer, Her2 highly positive (Her2hi)); SKOV3 (ovarian cancer, Her2hi); 786-O (renal cancer); UO-31 (renal cancer, MDR); NCI-H740 (SCLC); DMS53 (SCLC); SK-BR3 (breast cancer, Her2hi); ZR-75 (breast cancer, estrogen receptor positive); OVCAR3 (ovarian cancer); HL-60 (APL); OVCAR8/Adr (ovarian cancer, MDR); CEM-Cl (ALL); Nomo-1 (AML); RPMI-8226 (MM)); Raji (lymphoma); SW-480 (colorectal cancer, metastatic); SW-620 (colorectal cancer); and H226 (lung cancer). (Not all compounds were assayed against all cell lines.)
Table 3 provides the data for the ATP luminescence proliferation assays, with an incubation period of 48, 72, or 96 h, as noted.

[12] = test system: OVCAR3; experiment: 3H thymidine proliferation assay, OVCAR3
Procedure, shortened: as §2

[13] = test system: HPAC; experiment: 3H thymidine proliferation assay, HPAC
Procedure, shortened: as §2

[14] = test system: OVCAR8; experiment: 3H thymidine proliferation assay, OVCAR8
Procedure, shortened: as §2

[15] = test system: CEM-Cl; experiment: ATP luminescence proliferation assay, CEM-C1
Procedure, shortened: as §1

[16] = test system: Nomo-1; experiment: 3H thymidine proliferation assay, Nomo-1
Procedure, shortened: as §2

[17] = test system: Nomo-1; experiment: ATP luminescence proliferation assay, Nomo-1
Procedure, shortened: as §1

[18] = test system: PC3; experiment: 3H thymidine proliferation assay, PC3
Procedure, shortened: as §2

[19] = test system: SK-BR3; experiment: 3H thymidine proliferation assay, SK-BR3; settings: 3H thymidine method, 72 h incubation
Procedure, shortened: as §2

[20] = test system: HL-60; experiment: 3H thymidine proliferation assay, HL-60
Procedure, shortened: as §2

[21] = test system: DMS53; experiment: 3H thymidine proliferation assay, DMS53
Procedure, shortened: as §2

Work on `CC[C@H](C)[C@H](NC(=O)[C@H]1CCCCN1C)C(=O)N(COC)[C@H](C[C@@H](OC)c1nc(C(=O)N[C@@H](Cc2ccccc2)C(=O)OC)cs1)C(C)C` [Compound 29c] yielded an EC50 ([1]; ATP luminescence, NCI-H460, 72 h incubation, read-out: EC50 NCI-H460 (72 h)) of 6 nM, an EC50 ([2]; 3H thymidine method, 72 h incubation, read-out: EC50, H740) of 5.3 nM and an EC50 ([3]; ATP luminescence, 48 h incubation, read-out: EC50 Hep3B (48 h)) of 75 nM. For the same compound, the EC50 ([4]; ATP luminescence, SKOV3, 72 h incubation, read-out: EC50 SKOV3 (72 h)) was 17 nM, the EC50 ([5]; ATP luminescence, DMS53, 72 h incubation, read-out: EC50 DMS53 (72 h)) was 17 nM and the EC50 ([6]; 3H thymidine method, 72 h incubation, read-out: EC50, BT474) was 12 nM. The EC50 ([7]; 3H thymidine method, 72 h incubation, read-out: EC50, 786-O) was 3.9 nM, the EC50 ([8]; 3H thymidine method, 72 h incubation, read-out: EC50, Raji) was 8.5 nM and the EC50 [9] was 5.6 nM. For the same compound, the EC50 ([10]; ATP luminescence, BT474, 48 h incubation, read-out: EC50 BT474 (48 h)) was 492 nM, the EC50 ([11]; ATP luminescence, 72 h incubation, read-out: EC50 HPAC (72 h)) was 4.6 nM and the EC50 ([12]; 3H thymidine method, 72 h incubation, read-out: EC50, OVCAR3) was 3.6 nM. For the same compound, the EC50 ([13]; 3H thymidine method, 72 h incubation, read-out: EC50, HPAC) was 32 nM, the EC50 ([14]; 3H thymidine method, 72 h incubation, read-out: EC50, OVCAR8) was 1.4 nM and the EC50 ([15]; ATP luminescence, CEM-C1, 48 h incubation, read-out: EC50 CEM-C1 (48 h)) was 20 nM. It also gave an EC50 ([16]; 3H thymidine method, 72 h incubation, read-out: EC50, Nomo-1) of 0.43 nM, an EC50 ([17]; ATP luminescence, Nomo-1, 48 h incubation, read-out: EC50 Nomo-1 (48 h)) of 2.9 nM and an EC50 ([18]; 3H thymidine method, 72 h incubation, read-out: EC50, PC3) of 11 nM. The EC50 [19] was 72 nM, the EC50 ([20]; 3H thymidine method, 72 h incubation, read-out: EC50, HL-60) was 1.8 nM and the EC50 ([21]; 3H thymidine method, 72 h incubation, read-out: EC50, DMS53) was 76 nM.
Work on `CC[C@H](C)[C@H](NC(=O)[C@H]1CCCCN1C)C(=O)N(C)[C@H](C[C@@H](OC(C)=O)c1nc(C(=O)N[C@@H](Cc2ccc(N)cc2)CC(C)C(=O)O)cs1)C(C)C` (stereo partly drawn) [Compound 36] yielded an EC50 ([1]; Homo sapiens, NCI-H460, 72 h, read-out: EC50 NCI-H460 (72 h), ATP luminescence, NCI-H460, 72 h incubation) of 16 nM, an EC50 ([2]; Homo sapiens, read-out: EC50, H740, 3H thymidine method, 72 h incubation) greater than 100 nM and an EC50 ([3]; Homo sapiens, 48 h, read-out: EC50 Hep3B (48 h), ATP luminescence, Hep3B, 48 h incubation) of 86 nM. The EC50 ([4]; Homo sapiens, SK-OV-3, 72 h, read-out: EC50 SKOV3 (72 h), ATP luminescence, SKOV3, 72 h incubation) was 45 nM, the EC50 ([5]; Homo sapiens, DMS-53, 48 h, read-out: EC50 DMS53 (48 h), ATP luminescence, DMS53, 48 h incubation) was roughly 300 nM and the EC50 ([6]; Homo sapiens, BT-474, read-out: EC50, BT474, 3H thymidine method, 72 h incubation) was greater than 100 nM. For the same compound, the EC50 ([7]; Homo sapiens, 786-0, read-out: EC50, 786-O, 3H thymidine method, 72 h incubation) was greater than 100 nM, the EC50 ([8]; Homo sapiens, Raji, read-out: EC50, Raji, 3H thymidine method, 72 h incubation) was 15 nM and the EC50 ([9]; Homo sapiens, A2058) was 60 nM. The EC50 ([10]; Homo sapiens, BT-474, 48 h, read-out: EC50 BT474 (48 h), ATP luminescence, BT474, 48 h incubation) was roughly 120 nM, the EC50 ([11]; Homo sapiens, 72 h, read-out: EC50 HPAC (72 h), ATP luminescence, HPAC, 72 h incubation) was 2.9 nM and the EC50 ([12]; Homo sapiens, OVCAR-3, read-out: EC50, OVCAR3, 3H thymidine method, 72 h incubation) was greater than 100 nM. The EC50 ([13]; Homo sapiens, HPAC, read-out: EC50, HPAC, 3H thymidine method, 72 h incubation) was 83 nM, the EC50 ([14]; Homo sapiens, OVCAR-8, read-out: EC50, OVCAR8, 3H thymidine method, 72 h incubation) was greater than 100 nM and the EC50 ([15]; Homo sapiens, CEM/C1, 72 h, read-out: EC50 CEM-C1 (72 h), ATP luminescence, CEM-C1, 72 h incubation) was 40 nM. The EC50 ([16]; Homo sapiens, NOMO-1, read-out: EC50, Nomo-1, 3H thymidine method, 72 h incubation) was 124 nM, the EC50 ([17]; Homo sapiens, NOMO-1, 48 h, read-out: EC50 Nomo-1 (48 h), ATP luminescence, Nomo-1, 48 h incubation) was 34 nM and the EC50 ([18]; Homo sapiens, PC-3, read-out: EC50, PC3, 3H thymidine method, 72 h incubation) was 66 nM. The EC50 ([19]; Homo sapiens, SK-BR-3) was greater than 100 nM, the EC50 ([20]; Homo sapiens, HL-60, read-out: EC50, HL-60, 3H thymidine method, 72 h incubation) was 107 nM and the EC50 ([21]; Homo sapiens, DMS-53, read-out: EC50, DMS53, 3H thymidine method, 72 h incubation) was greater than 100 nM.
